One series deals with T1, FIV PR (Feline immunodeficiency virus, UniProt P16088, C122K/G43I/N93T).
T1 construct: made in house; host or cells: E. coli BL21(DE3)
Briefly: Inhibition of FIV PR (Ki, IC50). The class given is biochemical. The protocol: The solution was mixed and incubated for 10 minutes at 37° C. and the reaction quenched by addition of 8M guanidine HCl solution containing 0.2 M sodium acetate at pH 4.2 (100 μL). The cleavage products and substrate were separated by reverse phase HPLC. Absorbance was measured at 215 nm, peak areas were determined and percent conversion to product was calculated using relative peak areas. […] IC50 was determined as the inhibitor concentration at 50% inhibition. […] ([S]=substrate concentration in nmol). The data used was generated similarly to that for Ki with the following modifications. The substrate concentrations used were 560, 448, 336, 224, 111 and 56 μM, in the absence of inhibitor.
Kinetic determinations for both HIV PR and FIV PRs were performed at 37° C. at pH 5.25 in duplicate using F-2000 fluorescence spectrophotometer (Hitachi).
For FIV PRs, the kinetic data were determined under the similar reaction conditions as for HIV PR.

The next series relates to wild type HIV PR. Briefly: Cell culture IC90, wild type. Type of series: cell-based. The settings on record: Human immunodeficiency virus 1, read-out: IC90 against the wild type HIV PR.
Another series deals with I84V mutant. As to the kind of experiment: Cell culture IC90, I84V mutant. The class given is cell-based, HIV. The conditions noted are these: Human immunodeficiency virus 1, read-out: IC90 against the I84V mutant.
Series [1] has as its system SIVmac251 in 174×CEM cells. Briefly: Ex vivo inhibitor analysis against SIV, p27 antigen ELISA. Type of series: cell-based. The procedure: The results from tissue culture assays against SIV (FIG. 14) and HIV (FIG. 14) were equally encouraging. […] The effectiveness of compound 1200 against HIV was measured by determining the percentage of viable cells remaining in culture over time in the presence and absence of drug (FIG. 14). In the control, HIV caused formation of multinucleated syncytia and 100% cell death by 9 days post infection. However, the cells cultured with 1 μg/ml (1.1 μM) or 5 μg/ml (5.5 μM) of inhibitor 1200 remained 100% viable after 1 month, identical to results obtained in the absence of virus infection. To test for virus in these cultures, supernatants were removed and added to 1×10^5 uninfected MT-2 cells after a 1:5 dilution with fresh CM. […] In contrast, when 2×10^5 infected MT-2 cells that had been treated with compound 1200 for two weeks were removed and replated in fresh medium with or without compound 1200 only MT-2 cells cultured in the absence of compound 1200 were dead within 4 days (data not shown). […] Cultures are being carried continuously in the presence of compound 12 to look for resistance development. Tests are also underway to determine the level of efficacy of the compound against a defined panel of drug-resistant HIVs. […]

The subject of the next series is feline T-cells. Briefly: Toxicity to feline T-cells in culture. Type of series: cell-based. The procedure: For FIV, the assays were performed in FIV-infected feline T-cells which were cultured in the presence of compound 1200 at different concentrations over the course of 1 month. Each data in FIG. 14 represents the amount of pelletable FIV reverse transcriptase in the culture supernatant. […] Furthermore, this inhibitor was not toxic to feline T-cells. After one month, the drug-treated cultures were split and replated with and without compound 1200.
The lymphocytic cell line 104-C1 (provided by C. Grant) was used as the target for infection. Cells were cultured in RPMI-1640 media supplemented with 10% FBS, 200 μM L-Glutamine, 1×MEM-Vitamins, 100 μM Sodium Pyruvate, 1×Non-Essential Amino Acids, 5.5×10−5M b-ME, 50 μg/ml Gentamicin, 50 U/ml human recombinant Interleukin-2 (provided by Hoffmann-LaRoche) and 7.5 μg/ml Concanavalin-A. For inhibitor assessment, 5×10^6 cells were infected with FIV-PPR (4×105 RT units) in 1 mL culture for 2 hr at 37° C. No virus and virus only controls were incubated in a similar manner. The cells were then washed with Hanks-buffered saline solution (HBSS) and resuspended in 10 ml of complete medium. […] The culture supernatants were monitored for the presence of pelletable reverse transcriptase activity at weekly intervals, as follows. […] The paper was then dried and counted on a scintillation counter.

Consider `CC(C)[C@H](NC(=O)[C@H](C)NC(=O)OCc1ccccc1)C(=O)N[C@@H](Cc1ccccc1)[C@@H](O)[C@H](O)[C@H](Cc1ccccc1)NC(=O)[C@@H](NC(=O)[C@H](C)NC(=O)OCc1ccccc1)C(C)C` [Compound 1b], for which the inhibition constant Ki at FIV PR was 41 nM. In addition, the values for the IC90 in the series with wild type HIV PR and in the series with I84V mutant were 100 nM and 400 nM, respectively. Also, the “inhibition of SIV infection in tissue culture (in words)” value in series [1] is recorded as “strongly inhibits”. The “SIV virus expression, p27 antigen in culture supernatant” value in series [1] (1 μg/ml) is reported as “near background”. Besides, in the series on feline T-cells, the toxicity to cells result was “not toxic”.

Source of the values: patent publication US6803466B1, “HIV/FIV protease inhibitors having a small P3 residue” (The Scripps Research Institute, priority 1997, dated 2004).
